Test results: US20230414715A1, “TRAIL COMPOUNDS FOR REDUCING CANCER TREAMENT SIDE EFFECTS” (BROWN UNIVERSITY, priority 2022, published 2023)

Experiments:
C57B1/6 mice = assay: Radiation pneumonitis after whole-thorax x-ray irradiation, H&E of lung, wild-type mice; assay type: in vivo, mouse
Experimental: However, before embarking on the planned experiment, we decided to perform a preliminary, short-term treatment feasibility experiment to ensure some mouse survival after 20 Gy of thoracic irradiation (FIG. 1B). The preliminary experiment was performed with WT and DR5-null mice that were irradiated with 20 Gy, and this was followed by either weekly doses of TIC10/ONC201 (100 mg/kg for total of two doses) or twice a week doses of TLY012 (10 mg/kg for total of four doses) for 2 weeks.
(§1) Animal studies were carried out at Brown University facilities with approval from Brown University IACUC. C57B1/6 mice (Taconic), mice with bi-allelic loss of TRAIL Death Receptor-(DR5-/-) in a C57B1/6 background, and mice with bi-allelic loss of TRAIL (TRAIL -/-) in a C57B1/6 background were given a single whole-thorax x-ray (Philips RT250) irradiation dose of 20 Gy with shielding of other organs. 8-15-week-old male and female mice of each genotype were used. […] Treatment was continued for two weeks, where TLY012 was administered twice a week and ONC201 was administered once a week. For each genetic background, two mice received a control PO, two mice received TLY012 IP, and two mice received ONC201 PO. Mice were weighed twice a week, and 13 days post-irradiation all mice were euthanized. Organs were harvested from the mice and 600 μL of blood was collected via cardiac puncture for serum cytokine analysis. Organs were preserved in 10% formalin then embedded in paraffin and sectioned at a distance of 5 μm. […] TRAIL-/- female mice were also subjected to a survival study with a single whole-thorax radiation doses of 15 Gy or 18 Gy treated with the same regimen of TLY012 or control (n=2/radiation dose/treatment) (FIG. 3B). In order to determine the lethal dose of radiation for C57B1/6 mice, female C57B1/6 mice were treated with a single dose of whole-thorax irradiation of 25 Gy in a survival study where they were treated with either TLY012 or remained control (n=6/treatment) (FIG. 3C).

[1] = system: lung tissue in irradiated C57B1/6 mice; assay: Immunohistochemistry of irradiated lung tissue; assay type: in vivo, mouse
Text: Paraffin embedded sections of tissue were deparaffinized in xylene and rehydrated through graded ethanol solutions to phosphate-buffered saline (PBS). Heat-induced antigen retrieval (in 0.01 M citrate buffer; pH 6.0), endogenous peroxidase blocking (3% H202), and blocking were done using a standard protocol. […] Slides were developed with diaminobenzidine substrate (Vector Laboratories SK-4100) and counterstained with hematoxylin (Richard Allen Scientific). Slides were scanned (Olympus VS200) and representative brightfield images were taken and analyzed with OlyVIA software.

serum cytokines = assay: Serum cytokine analysis in the NanoString cohort; assay type: in vivo, mouse
Experimental: All mouse serum samples were analyzed by a custom R&D systems Murine Premixed Multi- Analyte Kit (R&D Systems, Inc., Minneapolis, MN). The panel was run on a Luminex 200 Instrument (Luminex Corporation, Austin, TX) according to the manufacturer's instructions. Murine serum levels of Angiopoietin-2, BAFF/BLyS/TNFSF13B, CCL2/JE/MCP-1, CCL3/MIP-1 alpha, CCL4/MIP-1 beta, CCL5/RANTES, CCL7/MCP-3/MARC, CCL11/Eotaxin, CCL12/MCP-5, CCL20/MIP-3 alpha, CCL21/6Ckine, CCL22/MDC, Chitinase 3-like 1, CXCL1/GRO alpha/KC/CINC-1, CXCL10/IP-10/CRG-2, CXCL12/S DF- 1 alpha, Dkk-1, FGF basic/FGF2/bFGF, GDF-15, GM-CSF, Granzyme B, IFN-gamma, IGF-I/IGF-1, IL-1 alpha/IL-1F1, IL-1 beta/IL-1F2, IL-2, IL-3, IL-4, IL-6, IL-7, IL-10, IL-13, IL-16, IL-17/IL-17A, IL-27, IL-33 M-CSF, MMP-3, MMP-8, MMP-12, Prolactin, TWEAK/TNFSF12, VEGF, and VEGFR2/KDR/Flk-1 were measured. Analyte values were reported in picograms per milliliter (pg/mL). […] Latent TGF-β was activated in samples using 1 N HCl and samples were neutralized with 1.2 N NaOH/0.5 M HEPES. Samples were assayed immediately after neutralization.
One hour before radiation mice were grouped into control or given 10 mg/kg of TLY012 via IP injection (n=3/gender/treatment). Mice were treated and weighed twice a week up until 11 days post-radiation when all mice were euthanized.
Rodent sacrifice was performed following anesthetization with 100 mg/kg ketamine and 10 mg/kg xylazine administered intraperitoneally. ˜400-600 μL blood was first collected throughcardiac puncture with a 26G ⅝″ needle through the intercostal space into the left ventricle. […] 1 mL of 2 mg/mL EDTA in PBS was injected through the right ventricle to perfuse the lungs, after which the lungs were excised, washed further in PBS, submerged in RNAlater (Sigma-Aldrich, #R0901, Missouri, USA), and flash frozen in liquid nitrogen.

TRAIL-/- female mice = assay: In vivo respiration-gated microCT imaging of lungs; parameters: species or system mouse; conditions: 15 Gy
Experimental: For μCT imaging, all mice were imaged in a SkyScan 1276 in vivo microCT scanner (Bruker, Kontich, Belgium) under isoflurane at 41 μm voxels with a 0.7° rotation step in supine position. […] Mice underwent μCT scans 13 days post irradiation. Image-based respiratory gating was used to sort images into gates based on specific time points of the breathing cycle to minimize motion artifact in the final reconstruction. For 3D reconstruction, Dataviewer version 1.5.4 (Bruker) was used to sort the CT images using the function “Listmode Scan” grouping the images in each bin where bin 0=maximum exhale and bin 3=maximum inhale (empty views <10%). Once the images were sorted, the listmode dataset was opened in NRecon software (Bruker) where the ROI undergoes 3D reconstruction. Reconstructed images were then analyzed in CTAn software (Bruker) where the volume of the lungs was calculated during max inhale and max exhale. The plugins in the custom processing page were used to create an ROI that separated the lungs from the rest of the image. 3D reconstructed images of the lung only were then opened in CTvol software (Bruker) where the color (red=69%, green=50%, blue=50%) and the opacity (7%) of the lung was changed.

female C57B1/6 mice = assay: 48-hour post-radiation TLY012 treatment; assay type: in vivo, mouse; conditions: 20 Gy, 10 mg/kg twice a week, preliminary results
Text: Mice were weighed twice a week, and then euthanized on day 13 post-irradiation. […] H&E-stained slides of the lungs were imaged at 20× magnification.

duodenum, liver or heart = assay: H&E of duodenum, liver and heart of irradiated, treated mice; conditions: 20 Gy irradiated mice, 2 weeks treatment
Experimental: as §1, with “In order to determine the lethal dose of radiation for C57B1/6 mice, female C57B1/6 mice were treated with a single dose of whole-thorax irradiation of 25 Gy in a survival study where they were treated with either TLY012 or remained control (n=6/treatment) (FIG. 3C).” left out

[2] = irradiated rescued versus irradiated control lung tissues
[3] = normal or inflamed lung, treated versus irradiated control
[4] = NanoString cohort, FIG. 5C, relative to untreated control

Substance: TLY012: N-terminal PEGylated recombinant human TRAIL; PEGylated trimeric TRAIL formulation
- protection from pneumonitis (C57B1/6 mice; WT mice, 20 Gy thoracic irradiation, preliminary experiment, 2 weeks treatment, versus irradiated control, FIG. 1C): qualitative evidence of protection from pneumonitis
- rescue from radiation-induced pneumonitis (C57B1/6 mice; irradiated C57B1/6 mice, FIG. 2): could rescue mice from radiation-induced pneumonitis
- NFkB [1, 2]: no differences
- proliferation [1, 2]: no differences
- DNA double strand break marker gamma-H2AX [1, 3]: no difference
- T-cell infiltration (CD3-epsilon) [1, 3]: no difference
- collagen in lungs ([1]; rescued lungs versus irradiated control): less collagen
- CCL3/MIP-lalpha serum level (serum cytokines; [4]): decrease
- GDF-15 serum level (serum cytokines; [4]): decrease
- IL-1beta serum level (serum cytokines; [4]): increase
- fold-change in the cytokine levels of inflammatory markers in serum (serum cytokines; serum taken 3 days after last administration): no statistically significant fold-change
- 3D reconstruction of lungs: clarity and visible airway space (TRAIL-/- female mice; same opacity conditions, FIG. 7B): overall clearer and have more visible airway space
- lung expansion upon inhalation (μCT) (TRAIL-/- female mice; twice weekly treatment, two weeks post irradiation, versus 15 Gy control, FIG. 7A): expand more upon inhalation
- rescue when treatment starts 48 hours after irradiation (female C57B1/6 mice): some rescue is possible
- toxicities in duodenum, liver or heart (duodenum, liver or heart): No obvious toxicities
